These results are taken from patent publication US6958345B2, “2-hydroxymethylcyclopropylidene methylpurines and -pyrimidines as antiviral agents” (The Regents of the University of Michigan, priority 1997, dated 2005).

By IC50 is commonly meant the concentration that gives 50% inhibition.

One test deals with HHV-6. The test is described as follows: HHV-6 ELISA in HSB-2 cells. The test is classed as cell-based, human herpes virus 6 (HHV 6). Here is the method: (c) HHV-6. In this case, enzyme-linked immunosorbent assay (ELISA) was performed in covalent amine plates (Costar, Cambridge, Mass.). The plates were activated by the addition of a homobifunctional crosslinking agent, bis(sulfosuccinimidyl) suberate, which was dissolved at 1 mg/mL in 30 mL of phosphate buffered saline (PBS: 137 mM NaCl, 2.7 mM KCl, 4.3 mM Na2HPO4, 1.4 mM KH2PO4, pH 7.4) and 300 μL of the crosslinker was added to each well in the covalent plate. The crosslinker reacted with the amine function on the plate for 30 min at room temperature. The byproduct, sodium N-hydroxysuccinimide sulfite, was removed by decanting and washing the plate twice with PBS. Samples consisting of 150 μl of mixed suspended HSB2 cells from the original drug-treated plate were solubilized in an equal volume of 10% Triton X-100 in coating buffer (15 mM Na2CO3, […] NaHCO3, pH 9.6). The plate was covered and then incubated for 1 h at 37° C. in a 5% CO2 atmosphere. These binding conditions facilitated covalent attachment of the antigen to the free end of the crosslinker.
After covalent binding, the antigen solution was decanted and the plate was washed six times in HEPES buffered saline (Shipman, C., Jr., Proc. Soc. Exp. Biol. 130:305-310 (1969)) with 0.05% Tween 20 (HBS-T ), soaking for three min for each wash. […] Absorbance in each well was determined at 450/570 nm.

A further test relates to HSV-1. The test is described as follows: HSV-1 ELISA in BSC-1 cells. The test is classed as cell-based, herpes simplex 1 (HSV-1). The settings on record: BSC-1 cells; ELISA. As for the experimental part:
Virological procedures. Stock HCMV was prepared by infecting HFF cells at a multiplicity of infection (m.o.i.) of <0.01 plaque-forming units (p.f.u.) per cell. Cell growth medium was changed every four days until cytopathology was evident in all cells (approximately 21 days). Supernatant fluids were retained as the virus stock. High titer HSV-1 stocks were prepared by infecting KB cells at an m.o.i. of <0.1 as detailed previously. Turk, S. R., et al., Antimicrob. Agents Chemother. 31:544-550 (1987). Virus titers were determined using monolayer cultures of HFF cells for HCMV and monolayer cultures of BSC-1 cells for HSV-1 as described earlier. Prichard, M. N., et al., J. Virol. Methods 28:101-106 (1990). Briefly, HFF or BSC-1 cells were planted as described above in 96-well cluster dishes and incubated overnight at 37° C. in a humidified 3% CO297% air atmosphere. The next day cultures were inoculated with HCMV or HSV-1 and serially diluted 1:3 across the remaining eleven columns of the 96-well plate. Cultures were incubated at 37° C. for 2 hr to permit virus adsorption and then virus inoculum was replaced with 0.2 mL of fresh medium. Cultures were incubated for seven days for HCMV, two or three days for HSV-1, medium was removed, and the cell sheets were stained with 0.1% crystal violet in 20% methanol. Plaques were enumerated under 20-fold magnification in wells having the dilution which gave 5 to 20 plaques per well. Virus titers were calculated according to the following Formula: Titer (p.f.u./mL)=number of plaques×5×3^n; where n represents the nth dilution of the virus used to infect the well in which plaques were enumerated.
(b) HSV-1. An enzyme-linked immunosorbent assay (ELISA) was employed to detect HSV-1. 96-well cluster dishes were planted with BSC-1 cells at 10,000 cells per well, in a total volume of 200 μL per well of MEM(E) plus 10% calf serum. After overnight incubation at 37° C., drug and HSV-1 was added at the rate of 100 PFU/well. ELISA plates were blocked with 200 μL per well of 10% calf serum and 0.05% tween in HBS. After incubation for 30 minutes, the blocking agent was rinsed two times with HBS-T. A 1:400 dilution of AP conjugated rabbit anti-HSV-1 antibody in HBS-F was added. Plates were sealed with adhesive sheet, and incubated on rocker for one hour at 37° C. Plates were developed in the dark with 100 μL per well of substrate solution containing p-nitrophenyl phosphate. Plates were read at […]. Drug effects were calculated as a percentage of the reduction in virus in the presence of each drug concentration compared to the titer obtained in the absence of drug. Acyclovir was used as a positive control in all experiments.
Data Analysis. Dose-response relationships were constructed by linearly regressing the percent inhibition of parameters derived in the preceding sections against log drug concentrations. Fifty-percent inhibitory (IC50) concentrations were calculated from the regression lines. Samples containing positive controls (acyclovir for HSV-1, ganciclovir for HCMV, and 2-acetylpyridine thiosemicarbazone for cytotoxicity) were used in all assays.
(In general: An ELISA detects its analyte on a solid surface through an enzyme-linked reagent.)

On to `Nc1ncnc2c1ncn2C=C1CC1CO` (stereo not drawn) [1 (B = adenine), Example 5, syn-N^9-(2-hydroxymethylcyclopropylidenemethyl)adenine], for which the IC50 was 3 µM with HHV-6 and 3.7 µM in the test with HSV-1.
